Source: US11376264B2, “Use of bromodomain-containing protein 9 antagonists in combination with vitamin D receptor agonists in diabetes treatment” (Salk Institute for Biological Studies, priority 2017, dated 2022)
Entries after “also recorded” stand apart in the source; their conditions may differ.

Key:
db/db (B6) mice = experiment: db/db (B6) mouse T2D model treatment; assay type: in vivo; settings: for fasted blood glucose levels: Cal 60 μg/kg, iBRD9 10 mg/kg i.p. 3 times a week, 9 weeks; for serum insulin levels: FIG. 10D, fasting / random fed
Method: (§1) The following mice strains were from Jackson: VDR KO (B6.129S4-Vdrtm1Mbd/J), B6 db (B6.BKS(D)-Leprdb/J), BKS db (BKS.Cg-Dock7m+/+ Leprdb/J), C57BL6/J. Animals were maintained in a specific pathogen-free animal facility on a 12-hr light-dark cycle at an ambient temperature of 23° C. Water and food were provided ad lib. All animal experiments used age-matched male mice. VDR KO and control littermate mice were maintained on a VDR KO rescue diet containing 21% calcium, 0.67% phosphorus, and 20% lactose supplemented with 4.4 U vitamin D per gram diet.
(§2) db/db (B6) mice were grouped based on glucose levels at the age of 5 weeks. Treatments were started from 6 weeks and animals were treated with vehicle (30% 2-Hydroxypropyl-β Cyclodextrin, Sigma, H-107) or drugs 3 times a week. […] For db/db (BKS) mice, treatment started from age of 10 weeks.
(§3) Intraperitoneal GTTs were performed on overnight fasted mice. Blood glucose values were assessed before and at 0, 15, 30, 60, and 120 min after i.p. administration of 0.5 g/kg of glucose. Serum insulin levels were assessed before and at 0, 15, and 60 min after the i.p. administration of glucose using a rat/mouse Insulin ELISA kit (Millipore). IP-ITT assays were performed on mice after a 6 hr fast with an injection of 2 U/kg of insulin (Humalin R, Eli Lilly).
(§4) ELISA were performed per manufacturer's instructions: mouse insulin (Millipore, EZRMI-13K), mouse proinsulin (Mercodia, NC9088881).

db/db (BKS) mice = experiment: db/db (BKS) mouse T2D model treatment; assay type: in vivo
Method: as §1, §2
(§5) For immunohistochemistry, FFPE tissues sections were deparaffinized and antigen retrieval performed using Vector Antigen Unmasking buffer (H3301). VectaStain ABC kit and ImmPACT DAB substrate (Vector Lab) were used to develop signal. Antibodies used: Pro-insulin (R&D, MAB13361, 1:100), insulin (Abcam, ab7842, 1:100), MAFA (Novus, NB400-137, 1:50), NKX6-1 (Cell Signaling, 54551, 1:100), and Glucagon (Abcam, ab82270, 1:100). DAPI-containing mounting media ([…] mounting medium for fluorescence) was used for nuclear staining. Immunostaining was visualized by ZEISS 780 confocal microscopy analysis.
as §4

[1] = system: low-dose STZ-treated mice; experiment: Low-dose STZ β cell damage mouse model; assay type: in vivo; settings: for glucose control (overnight fasted glucose): i.p. 3 times a week; for serum insulin levels: mouse, in vivo
Method: 8 week old C57B16 male mice were injected intraperitoneally with streptozotocin (Sigma, S0130) at the dose of 50 mg/kg every day for 5 consecutive days.
as §5, §3

h-IAPP mouse islets = experiment: Islets from aged h-IAPP transgenic mice treated ex vivo (qPCR); assay type: cell-based; settings: 72 hr ex vivo, 15 month old mice
Method: (§6) Samples were run in triplicate and expression was normalized to the levels of the housekeeping controls Rplp0 (36b4) for human and mouse. Samples were analyzed by qPCR, using SYBR Green dye (Bio-rad). Statistical comparisons were made using Student's t test. Error bars are mean±SEM. Primers used are shown below: Mouse pancreatic islets were isolated as previously described (Yoshihara et al., 2010, Nat. Commun 1:127) with slight modification. Briefly, 0.5 mg/ml collagenase P (Roche REF 1213873001, diluted in HBSS buffer, GIBCO, 14170-112) was injected through the common bile duct, and the perfused pancreas dissected and incubated at 37° C. for 21 min. Digested exocrine cells and intact islets were separated via centrifugation (900×g for 15 min) over Histopaque-1077 (Sigma, H8889), and intact islets were manually selected. Human islets were provided by the Integrated Islets Distribution Program (see details below).

human islets = experiment: Long term ex vivo human islet cultures; assay type: cell-based; settings: for insulin secretion: 1 week; for islet survival (cell numbers): 4 weeks
Method: as §6, with “Mouse” for “Samples were run in triplicate and expression was normalized to the levels of the housekeeping controls Rplp0 (36b4) for human and mouse. Samples were analyzed by qPCR, using SYBR Green dye (Bio-rad). Statistical comparisons were made using Student's t test. Error bars are mean±SEM. Primers used are shown below: Mouse”

[2] = In vivo pharmacokinetic study of iBRD9 (plasma, LC-MS); settings: FIG. 12J, n=3
Method: An internal standard of d4-succinate was added to all samples prior to analysis. […] of methanol containing 100 pmol of d4-succinate was added to 50 uL plasma samples and vortexed for 1 min. The samples were then centrifuged at 17.000× g for 10 min at 4° C. After drying the supernatant via SpeedVac, the extract was dissolved in H2O ([…]) and […] was subjected to liquid chromatography mass spectrometry (LC-MS). Compound i-BRD9 was measured using a TSQ Quantiva mass spectrometer (Thermo) and Dionex Ultimate 3000 (Thermo) fitted with a Gemini C18 HPLC column ([…]; 4.6 mm×50 mm, Phenomenex). LC solvents used were: solvent A, 0.1% formic acid in water; solvent B, 0.1% formic acid in acetonitrile. Separations took place over 16 min with a flow rate of 0.4 mL/min and consisted of the following steps: 5 to 50% solvent B over 9 min, 50 to 80% B over 1 min, 80% B for 1 min, 80 to 5% B over 0.1 min, and 5% B for 5 min. MS analyses were performed using electrospray ionization (ESI) in positive ion mode for i-BRD9 and negative ion mode for d4-succinate. Positive and negative mode source parameters were as follows: spray voltage 3.5 kV, ion transfer tube temperature of 325° C., and a vaporizer temperature of 275° C. Multiple reaction monitoring transitions for target compound and internal standard are shown in (Table 2).

Row | Structure (SMILES) | fasted blood glucose levels (db/db (B6) mice) | serum insulin levels (db/db (B6) mice) | cytokine and chemokine genes in islets (db/db (B6) mice; RNA-seq of islets) | key transcription factors (Nkx6-1, Nr4a1) in islets (db/db (B6) mice; RNA-seq of islets) | Cyp24A1 expression in islets and intestine (db/db (B6) mice; VDR target gene) | glucose tolerance (IPGTT) (db/db (B6) mice; after 9 weeks treatment) | Ins2 mRNA levels in islets (db/db (B6) mice; qPCR) | expression of gluconeogenesis genes (Pepck, Fbp1, G6pase) in liver (db/db (B6) mice; qPCR) | serum insulin levels (db/db (BKS) mice; fasting) | fasting blood glucose / glucose management (db/db (BKS) mice; i.p. 3 times a week) | ER stress markers Calnexin and PERK (db/db (BKS) mice; immunohistochemistry of pancreatic sections) | intracellular insulin level (immunofluorescence) (db/db (BKS) mice; pancreas sections) | glucose control (overnight fasted glucose) [1] | serum insulin levels [1] | inflammatory and stress markers (h-IAPP mouse islets) | insulin secretion (human islets) | insulin secretion (human islets; listed as Calcipotriol) | islet survival (cell numbers) (human islets) | islet survival (cell numbers) (human islets; listed as Calcipotriol) | maximum plasma iBRD9 concentration [2] [nM]
1 | C=C1/C(=C\C=C2/CCC[C@]3(C)[C@@H]([C@H](C)/C=C/[C@@H](O)C4CC4)CC[C@@H]23)C[C@@H](O)C[C@@H]1O [Cal, calcipotriol] | modest improvements; also recorded: mildly reduces | higher fasting serum insulin levels | downregulated | upregulation | marked induction | improved glucose clearance; also recorded: better glucose tolerance | trended upwards; also recorded: increased expression of Ins2 | reduced expression; also recorded: repressed | higher fasting serum insulin levels | only limited improvements | reduced | rescued | limited to no benefit | increased levels of insulin | reduced | increased | Increases | increased | Increases | 
2 | CCn1cc(-c2cccc(C(F)(F)F)c2)c2sc(C(=N)NC3CCS(=O)(=O)CC3)cc2c1=O [iBRD9] | modest improvements | higher fasting serum insulin levels |  |  |  |  |  |  |  |  |  |  | limited to no benefit | increased levels of insulin |  |  |  |  |  | ~750
